Legend:
[1] = system: human esophageal cancer cell line TE-1; experiment: MTT cell proliferation assay, esophageal cancer cell line TE-1; assay type: cell-based
Excerpt: (§1) As human cancer cell lines, human lung cancer cell lines NCL-H226 and SK-MES-1, human esophageal cancer cell lines KYSE-150 and TE-1, human gastric cancer cell line AGS, human colorectal cancer cell lines HT29 and HCT116, human prostate cancer cell line PC-3, human pancreatic cancer cell lines BxPC-3 and PANC-1, human cervical cancer cell lines SiHa and HeLa, human ovarian cancer cell line SK-OV-3, and human endometrial cancer cell lines Ishikawa, HEC-1A, and HEC-1B were obtained from the Shanghai Cell Bank of Chinese Academy of Sciences. […]
(§2) The effects of Example 1 and Comparative Examples 1 to 3 on cell proliferation were assessed using MTT assay. […] All the crystals were completely dissolved by standing at room temperature for 15 minutes, and the absorbance was measured using a micro-plate reader at a wavelength of 570 nm (A570 nm).
(§3) The absorbance value of the control group treated without the sample was calculated as 100, and the absorbance value of the treatment group treated with the sample, compared with that of the control group, was calibrated, and the percentage of inhibition of cell proliferation was calculated according to the following equation. Percentage (%) of inhibition of cell proliferation=((mean absorbance of control group cells−mean absorbance of treatment group cells)/mean absorbance of control group cells)×100

[2] = system: human pancreatic cancer cell line PANC-1; experiment: MTT cell proliferation assay, pancreatic cancer cell line PANC-1; assay type: cell-based
Excerpt: as §1, §2, §3

[3] = system: human endometrial cancer cell line Ishikawa; experiment: MTT cell proliferation assay, endometrial cancer cell line Ishikawa; assay type: cell-based; details: treatment for 72 hours, read-out: Cancer cell growth inhibition (IC50)
Excerpt: as §1, §2, §3

[4] = system: human endometrial cancer cell line HEC-1B; experiment: MTT cell proliferation assay, endometrial cancer cell line HEC-1B; assay type: cell-based; details: treatment for 72 hours, read-out: Cancer cell growth inhibition (IC50)
Excerpt: as §1, §2, §3

[5] = system: human cervical cancer cell line HeLa; experiment: MTT cell proliferation assay, cervical cancer cell line HeLa; assay type: cell-based; details: treatment for 72 hours, read-out: Cancer cell growth inhibition (IC50)
Excerpt: as §1, §2, §3

[6] = system: human pancreatic cancer cell line BxPC-3; experiment: MTT cell proliferation assay, pancreatic cancer cell line BxPC-3; assay type: cell-based
Excerpt: as §1, §2, §3

[7] = system: human prostate cancer cell line PC-3; experiment: MTT cell proliferation assay, prostate cancer cell line PC-3; assay type: cell-based; details: PC-3, treatment for 72 hours, read-out: Cancer cell growth inhibition (IC50)
Excerpt: as §1, §2, §3

[8] = system: human gastric cancer cell line AGS; experiment: MTT cell proliferation assay, gastric cancer cell line AGS; assay type: cell-based
Excerpt: As human cancer cell lines, human lung cancer cell lines NCL-H226 and SK-MES-1, human esophageal cancer cell lines KYSE-150 and TE-1, human gastric cancer cell line AGS, human colorectal cancer cell lines HT29 and HCT116, human prostate cancer cell line PC-3, human pancreatic cancer cell lines BxPC-3 and PANC-1, human cervical cancer cell lines SiHa and HeLa, human ovarian cancer cell line SK-OV-3, and human endometrial cancer cell lines Ishikawa, HEC-1A, and HEC-1B were obtained from the Shanghai Cell Bank of Chinese Academy of Sciences. The cells were incubated in media supplemented with 10% FBS, 50 U/ml penicillin, and 50 μg/ml streptomycin and suitable for incubation of respective cells (RPMI-1640 (NCL-H226, TE-1, BxPC-3, Ishikawa), MEM (SK-MES-1, SiHa, HeLa, HEC-1B), Ham's F-12K (AGS), Ham's F-12 (PC-3), McCOY's 5A (HT29, HCT116, SK-OV-3, HEC-1A), RPMI-1640:Ham's F-12=1:1(v:v) (KYSE-150), and DMEM (PANC-1)) in a humidified incubator with 5% CO2 and 95% air. The media were exchanged every three days.
as §2, with “assay. MTT assay is based on the ability of viable cells against MTT to produce insoluble dark blue formazan products.” for “assay.”
as §3

[9] = system: human lung cancer cell line SK-MES-1; experiment: MTT cell proliferation assay, lung cancer cell line SK-MES-1; assay type: cell-based
Excerpt: as §1, §2, §3

[10] = system: human esophageal cancer cell line KYSE-150; experiment: MTT cell proliferation assay, esophageal cancer cell line KYSE-150; assay type: cell-based
Excerpt: as §1, §2, §3

[11] = system: human lung cancer cell line NCL-H226; experiment: MTT cell proliferation assay, lung cancer cell line NCL-H226; assay type: cell-based
Excerpt: as §1, §2, §3

[12] = system: human endometrial cancer cell line HEC-1A; experiment: MTT cell proliferation assay, endometrial cancer cell line HEC-1A; assay type: cell-based; details: treatment for 72 hours, read-out: Cancer cell growth inhibition (IC50)
Excerpt: as §1, §2, §3

[13] = system: various cancer cells, such as brain cancer, breast cancer, liver cancer, and skin cancer; experiment: Proliferation of other cancer cells (data not shown); assay type: cell-based
[14] = system: human colorectal cancer cell line HT29; experiment: MTT cell proliferation assay, colorectal cancer cell line HT29; assay type: cell-based
Excerpt: as §1, §2, §3

[15] = system: human ovarian cancer cell line SK-OV-3; experiment: MTT cell proliferation assay, ovarian cancer cell line SK-OV-3; assay type: cell-based; details: SK-OV-3, treatment for 72 hours, read-out: Cancer cell growth inhibition (IC50)
Excerpt: as §1, §2, §3

[16] = system: human cervical cancer cell line SiHa; experiment: MTT cell proliferation assay, cervical cancer cell line SiHa; assay type: cell-based; details: treatment for 72 hours, read-out: Cancer cell growth inhibition (IC50)
Excerpt: as §1, §2, §3

[17] = system: human colorectal cancer cell line HCT116; experiment: MTT cell proliferation assay, colorectal cancer cell line HCT116; assay type: cell-based
Excerpt: as §1, §2, §3

cancer metastasis = details: animal experiments; cited from earlier work
[18] = system: uterine cancer, bladder cancer, lung cancer, maxillary sinus cancer, kidney cancer; details: end-stage cancer patients; cited from earlier work

O1[As]2O[As]3O[As]1O[As](O2)O3 [Example 1, tetraarsenic hexoxide]
IC50 ([1]; Esophageal cancer, TE-1, treatment for 72 hours, read-out: Cancer cell growth inhibition (IC50)): 2.35 µM
percentage of inhibition of cell proliferation according to treatment time ([1]; TE-1, 10 μM, 24, 48, 72 hours (FIG. 4A)): increased with the treatment time
percentage of inhibition of cell proliferation according to concentration ([2]; PANC-1, different concentrations, 72 hours (FIG. 8B)): increased dependent on the concentration of Example 1
IC50 ([2]; Pancreatic cancer, PANC-1, treatment for 72 hours, read-out: Cancer cell growth inhibition (IC50)): 5.62 µM
IC50 [3]: 2.75 µM
IC50 [4]: 4.61 µM
IC50 [5]: 1.63 µM
percentage of inhibition of cell proliferation according to concentration ([6]; BxPC-3, different concentrations, 72 hours (FIG. 8B)): increased dependent on the concentration of Example 1
IC50 ([6]; Pancreatic cancer, BxPC-3, treatment for 72 hours, read-out: Cancer cell growth inhibition (IC50)): 4.98 µM
IC50 [7]: 4.98 µM
IC50 ([8]; Gastric cancer, treatment for 72 hours, read-out: Cancer cell growth inhibition (IC50)): 0.9 µM
inhibition of cell proliferation according to treatment time and concentration ([8]; different concentrations, 24, 48, 72 hours (FIG. 5A)): increased with the treatment time at each treatment concentration
percentage of inhibition of gastric cancer cell proliferation at 48 hours ([8]; treatment for 48 hours (FIG. 5A)): high in spite of the treatment for only 48 hours
IC50 ([9]; Lung cancer, SK-MES-1, treatment for 72 hours, read-out: Cancer cell growth inhibition (IC50)): 2.47 µM
percentage of inhibition of cell proliferation according to treatment time ([9]; SK-MES-1, 10 μM, 24, 48, 72 hours (FIG. 3)): increased with the treatment time
IC50 ([10]; Esophageal cancer, KYSE-150, treatment for 72 hours, read-out: Cancer cell growth inhibition (IC50)): 9.85 µM
percentage of inhibition of cell proliferation according to treatment time ([10]; KYSE-150, 10 μM, 24, 48, 72 hours (FIG. 4A)): significantly increased in the treatment for 72 hours
IC50 ([11]; Lung cancer, NCL-H226, treatment for 72 hours, read-out: Cancer cell growth inhibition (IC50)): 5.12 µM
percentage of inhibition of cell proliferation according to treatment time ([11]; NCL-H226, 10 μM, 24, 48, 72 hours (FIG. 3)): increased with the treatment time
IC50 [12]: 2.47 µM
inhibition of proliferation of various cancer cells [13]: confirmed to inhibit the proliferation
IC50 ([14]; Colorectal cancer, HT29, treatment for 72 hours, read-out: Cancer cell growth inhibition (IC50)): 1.27 µM
percentage of inhibition of cell proliferation according to treatment time ([14]; HT29, 10 μM, 24, 48, 72 hours (FIG. 6A)): increased with the treatment time
IC50 [15]: 5.02 µM
IC50 [16]: 2.8 µM
IC50 ([17]; Colorectal cancer, HCT116, treatment for 72 hours, read-out: Cancer cell growth inhibition (IC50)): 5.07 µM
percentage of inhibition of cell proliferation according to treatment time ([17]; HCT116, 10 μM, 24, 48, 72 hours (FIG. 6A)): increased with the treatment time

O1[As]2O[As]3O[As]1O[As](O2)O3 [tetraarsenic hexoxide]
cancer metastasis suppressing effects (cancer metastasis): showed cancer metastasis suppressing effects
anticancer treatment effects [18]: had excellent anticancer treatment effects

Reference: patent US11191779B2, “Pharmaceutical composition for preventing or treating cancer, comprising tetraarsenic hexoxide crystalline polymorph” (CHEMAS CO., LTD., priority 2016, dated 2021)
